Assay [1] addresses T1, FL-SMARCA2 (full-length human SMARCA2 isoform 1) (Homo sapiens, UniProt P51531).
T1 construct: FLAG tag (YKDDDDK) (C); made in house; host or cells: Sf21 insect cells (baculovirus, pFastBacI)
Put plainly: SMARCA2 ATPase activity assay (ADP-Glo, chicken mononucleosome substrate). The class given is biochemical. Particulars: ATPase assay, enzyme 5 nM, ATP 250 uM, chicken mononucleosome 10 nM, 30 min preincubation. On the technique in general: ADP-Glo first removes unused ATP, then detects ADP through luciferase.

A further assay deals with H358 cells. Put plainly: High-throughput proliferation (HTP) assay for H358 cells (CellTiter-Glo, 7 days). In kind it is cell-based. Particulars: Homo sapiens, NCI-H358, 168 h, read-out: H358 SMARCA2 IC50. Here is the method:
Thawing vials: H358 cells (ATCC #CRL-5807™) were thawed from a cryovial containing approximately 1.6×10^6 cells frozen in 70% RPMI 1640 medium, 20% HI-FBS and 10% DMSO. Cells were thawed by submerging the bottom half of the vial in a 37° C. water bath and gently flicked until almost thawed. The cells were removed and transferred into a 15 mL conical tube containing 9 mL RPMI 1640 medium+10% HI-FBS and then centrifuged 200×g for 4 min before drawing off the media without disturbing the cell pellet to remove the DMSO. The cells were resuspended again in 15 mL of RPMI 1640 fresh complete media+10% HI-FBS and grown up in a T75 flask at 37° C. with 5% CO2 Incubator. Viability was measured to obtain baseline.
Preparing frozen stock vials: Cell density was counted in a stock flask. The culture was transferred to a 50 mL conical tube and spun down to remove medium, and then resuspend at 1-2×10^6 cells/mL in complete medium containing 10% DMSO and transferred to a 1 mL per vial.
(§1) Routine subculture: Sub-confluent cultures (70-80%) were split every 4 days, seeding out at 1-2×10^6 cells/75 cm^2.
Day 0: Assay ready plates were prepared by dispensing 50 nL of compound stock or DMSO in the appropriate wells of 384-well white CulturPlates using Echo550. Using the Multiflo, H358 cells at 50 μL/well were plated in RPMI 1640 complete media+10% HI-FBS+1% pen/strep at cell density determined [20,000 cells/mL (1,000 cells/well)] from growth curve. Treated cells were inclubated at 37° C., 5% CO2, relative humidity >90% for 7 days. CellTiter-Glo (CTG) ATP detection reagent was prepared according to manufacturer's specifications. Cell assay plates were removed from incubator and bring to room temperature (RT).
Using the MultiDrop liquid handler, 30 μL of CTG were added per well. Plates were placed on the multidrop dispenser shake for 5 seconds at RT. Plates were incubated for 30 minutes in the dark at RT before measuring luminescence using the Envison2104.
Data analysis: Using the DMSO control wells as the 0% inhibition (high signal) control and the 10 uM Doxorubicin control wells as the 100% inhibition (low signal) control, percent inhibition EC50s (inflection point) and IC50s were calculated for the compound dose responses.
In general terms: Cellular ATP, detected with luciferase, serves as a proxy for viable cell number.

The test system of another assay is A549 cells. Put plainly: High-throughput proliferation (HTP) assay for A549 cells (CellTiter-Glo, 7 days). In kind it is cell-based. The settings on record: Homo sapiens, 168 h, read-out: A549 SMARCA2 IC50. How it is done:
Thawing vials: A549 cells (ATCC #CCL-185™) were thawed from a cryovial containing approximately 1.6×10^6 cells frozen in 70% F12K medium, 20% HI-FBS and 10% DMSO. Cells were thawed by submerging the bottom half of the vial in a 37° C. water bath and gently flicked until almost thawed. The cells were transferred into a 15 mL conical tube containing 9 mL of F12K medium+10% HI-FBS and then centrifuged at 200×g for 4 min before drawing off the media without disturbing the cell pellet in order to remove the DMSO. The cells were resuspended again in 15 mL of F12K fresh complete media+10% HI-FBS and grown up in a T75 flask at 37° C. with 5% CO2 Incubator. Viability was measured to obtain baseline.
Frozen stock vials preparation: The cell culture was transferred to a 50 mL conical tube, spun down to remove medium, and resuspended at 1-2×10^6 cells/mL in complete medium containing 10% DMSO. The culture was then stored for 24 hours at −80 degree C., (with the initial rate of freezing is −1 degree C. per minute in a freezing container), then transferred and stored in liquid nitrogen.
as §1
Day 0: Assay ready plates were prepared by dispensing 50 nL of compound or DMSO in the appropriate wells of 384-well white CulturPlates using Echo550. Using the Multiflo, A549 cells were plated at 50 μL/well in F12K complete media+10% HI-FBS+1% pen/strep at cell density determined [1,250 cells/mL (62.5 cells/well)] from growth curve.
Treated cells were incubated at 37° C., 5% CO2, relative humidity >90% for 7 days. CellTiter-Glo (CTG) ATP detection reagent was prepared according to manufacturer's specifications. Cell assay plates were removed from the incubator and brought to room temperature (RT). Using the MultiDrop liquid handler, 30 μL of CTG were added per well. Plates were placed on the multidrop dispenser shake for 5 seconds at room temperature (RT). Plates were incubated for 30 minutes in the dark at RT before measuring luminescence using the Envison2104.
Data analysis: Using the DMSO control wells as the 0% inhibition (high signal) control and the 10 μM Doxorubicin control wells as the 100% inhibition (low signal) control, percent inhibition EC50s (inflection point) and IC50 s were calculated for the compound dose responses.

The target of another assay is FL-SMARCA4 (Homo sapiens, UniProt P51532). Put plainly: SMARCA4 ATPase activity assay (ADP-Glo, chicken mononucleosome substrate).
Sequence of FL-SMARCA4 (P51532 whole entry): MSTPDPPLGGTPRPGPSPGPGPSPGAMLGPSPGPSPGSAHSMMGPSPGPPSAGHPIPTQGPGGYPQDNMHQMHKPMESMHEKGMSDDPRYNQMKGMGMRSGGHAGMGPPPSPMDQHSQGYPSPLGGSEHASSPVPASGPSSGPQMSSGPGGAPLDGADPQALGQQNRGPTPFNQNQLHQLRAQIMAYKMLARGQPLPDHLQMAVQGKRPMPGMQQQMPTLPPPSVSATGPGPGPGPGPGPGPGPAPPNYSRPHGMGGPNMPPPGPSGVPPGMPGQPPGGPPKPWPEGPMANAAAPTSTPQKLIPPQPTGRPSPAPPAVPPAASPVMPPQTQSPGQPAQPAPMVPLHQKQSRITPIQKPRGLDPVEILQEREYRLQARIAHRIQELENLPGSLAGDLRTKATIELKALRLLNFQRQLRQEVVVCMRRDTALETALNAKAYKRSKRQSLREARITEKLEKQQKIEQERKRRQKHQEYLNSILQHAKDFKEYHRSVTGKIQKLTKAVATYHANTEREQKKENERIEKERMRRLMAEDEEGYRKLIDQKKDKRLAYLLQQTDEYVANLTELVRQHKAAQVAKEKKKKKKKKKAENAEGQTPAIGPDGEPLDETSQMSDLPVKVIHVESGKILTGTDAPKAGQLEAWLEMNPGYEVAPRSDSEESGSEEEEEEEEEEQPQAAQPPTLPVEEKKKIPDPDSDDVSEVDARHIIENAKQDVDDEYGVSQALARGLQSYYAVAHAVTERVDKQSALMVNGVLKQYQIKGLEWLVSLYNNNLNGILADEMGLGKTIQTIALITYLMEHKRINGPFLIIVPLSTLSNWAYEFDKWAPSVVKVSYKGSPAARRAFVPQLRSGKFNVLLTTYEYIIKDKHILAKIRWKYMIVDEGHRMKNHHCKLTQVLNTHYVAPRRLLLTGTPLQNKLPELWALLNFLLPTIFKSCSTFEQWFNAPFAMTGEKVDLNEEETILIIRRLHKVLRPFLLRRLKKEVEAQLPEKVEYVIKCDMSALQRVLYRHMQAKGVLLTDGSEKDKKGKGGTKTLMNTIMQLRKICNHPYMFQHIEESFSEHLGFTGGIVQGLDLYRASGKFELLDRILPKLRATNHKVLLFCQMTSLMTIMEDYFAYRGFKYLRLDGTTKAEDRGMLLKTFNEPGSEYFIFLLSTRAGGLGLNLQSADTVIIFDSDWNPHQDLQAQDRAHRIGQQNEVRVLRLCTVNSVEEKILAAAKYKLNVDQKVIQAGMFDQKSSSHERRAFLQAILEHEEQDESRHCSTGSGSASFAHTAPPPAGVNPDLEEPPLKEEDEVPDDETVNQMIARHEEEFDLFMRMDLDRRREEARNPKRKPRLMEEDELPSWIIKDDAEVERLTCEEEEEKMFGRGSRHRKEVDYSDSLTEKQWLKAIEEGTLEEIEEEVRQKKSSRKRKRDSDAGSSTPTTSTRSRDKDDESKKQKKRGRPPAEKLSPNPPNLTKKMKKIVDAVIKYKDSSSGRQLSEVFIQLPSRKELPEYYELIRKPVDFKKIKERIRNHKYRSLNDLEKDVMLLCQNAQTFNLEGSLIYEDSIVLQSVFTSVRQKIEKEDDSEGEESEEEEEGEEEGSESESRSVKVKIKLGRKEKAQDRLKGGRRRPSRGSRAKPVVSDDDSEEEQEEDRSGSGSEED
Where [2] appears, read: FL-SMARCA4 IC>50, Table 3c.2, ATPase assay, enzyme 5 nM, ATP 250 uM, chicken mononucleosome 10 nM, 30 min preincubation.
Setting [3] is: Table 3d.1, read-out: FL-SMARCA2 IC>50.

The structures appear in SMILES notation. pIC50: −log10 of the molar value. Read-outs that look alike come from different tables or passages of the source.

T1 sequence (P51531 with tags, fused parts or gaps): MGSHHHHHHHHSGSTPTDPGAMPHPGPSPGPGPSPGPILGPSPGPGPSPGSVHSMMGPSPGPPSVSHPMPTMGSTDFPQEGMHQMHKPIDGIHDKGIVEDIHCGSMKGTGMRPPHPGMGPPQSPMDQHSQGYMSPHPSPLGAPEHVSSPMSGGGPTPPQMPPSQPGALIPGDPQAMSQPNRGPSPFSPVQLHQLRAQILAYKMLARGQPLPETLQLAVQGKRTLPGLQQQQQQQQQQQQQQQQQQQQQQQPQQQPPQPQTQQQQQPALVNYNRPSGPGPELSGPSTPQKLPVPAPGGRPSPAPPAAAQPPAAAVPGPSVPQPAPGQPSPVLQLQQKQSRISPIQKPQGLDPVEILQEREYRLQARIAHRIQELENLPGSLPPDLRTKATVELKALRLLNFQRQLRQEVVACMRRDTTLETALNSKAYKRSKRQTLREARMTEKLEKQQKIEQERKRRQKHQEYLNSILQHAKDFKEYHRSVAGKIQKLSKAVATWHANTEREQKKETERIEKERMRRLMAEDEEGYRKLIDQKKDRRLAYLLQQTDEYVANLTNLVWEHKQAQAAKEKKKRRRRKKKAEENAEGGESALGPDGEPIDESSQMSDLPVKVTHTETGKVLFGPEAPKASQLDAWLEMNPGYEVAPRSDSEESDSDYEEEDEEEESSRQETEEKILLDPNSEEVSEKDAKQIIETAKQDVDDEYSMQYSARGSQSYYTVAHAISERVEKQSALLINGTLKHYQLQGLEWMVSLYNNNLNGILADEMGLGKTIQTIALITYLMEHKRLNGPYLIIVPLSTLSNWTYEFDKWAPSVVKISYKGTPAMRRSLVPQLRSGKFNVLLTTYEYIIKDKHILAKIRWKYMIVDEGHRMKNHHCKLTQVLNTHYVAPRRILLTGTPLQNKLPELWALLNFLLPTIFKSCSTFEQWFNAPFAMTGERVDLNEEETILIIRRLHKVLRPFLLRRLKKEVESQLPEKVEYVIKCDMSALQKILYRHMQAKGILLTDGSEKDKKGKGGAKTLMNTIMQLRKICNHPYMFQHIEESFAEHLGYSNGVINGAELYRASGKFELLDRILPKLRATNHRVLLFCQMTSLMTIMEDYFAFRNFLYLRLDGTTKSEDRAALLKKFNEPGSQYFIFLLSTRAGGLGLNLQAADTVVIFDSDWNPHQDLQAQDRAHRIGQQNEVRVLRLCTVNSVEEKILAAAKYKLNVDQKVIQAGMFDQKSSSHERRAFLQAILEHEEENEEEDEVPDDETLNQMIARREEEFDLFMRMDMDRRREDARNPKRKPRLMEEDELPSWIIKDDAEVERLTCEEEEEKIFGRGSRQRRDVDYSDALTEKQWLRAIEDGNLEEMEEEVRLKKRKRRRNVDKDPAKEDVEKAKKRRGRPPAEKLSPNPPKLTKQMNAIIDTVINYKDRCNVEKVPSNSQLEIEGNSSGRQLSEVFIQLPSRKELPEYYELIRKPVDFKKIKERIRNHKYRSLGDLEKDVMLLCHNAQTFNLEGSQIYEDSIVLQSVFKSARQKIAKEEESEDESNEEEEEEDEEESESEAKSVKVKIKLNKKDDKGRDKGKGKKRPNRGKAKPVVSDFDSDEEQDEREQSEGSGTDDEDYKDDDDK

`NC(=O)c1cccc(C#Cc2cc(C(=O)Nc3cc(F)c(=O)n(CC(F)F)c3)sc2Cl)c1` [Compound 57c]: the pIC50 in assay [1] (Table 3c.1) is 7.68; in the assay on H358 cells, under 5.00; in the assay with A549 cells it was 5.44; against FL-SMARCA4 (setting [2]), 7.00.
For `CC(=O)NC1COCC(C#Cc2cc(C(=O)Nc3cc(F)c(=O)n(CC(F)F)c3)sc2Cl)C1` (stereo not drawn) [Compound 57d], the pIC50 was 7.29 in assay [1] (setting [3]), under 5.00 with H358 cells, under 5.00 in the assay with A549 cells and 6.72 against FL-SMARCA4 (FL-SMARCA4 IC50).
For the compound `O=C(Nc1cc(F)c(=O)n(CC(F)F)c1)c1cc(C#CC2CCOC2)c(Cl)s1` (stereo not drawn) [Compound 58c], the pIC50 was 7.35 in assay [1] (Table 3c.1), under 5.00 in the assay with H358 cells, 5.83 in the assay on A549 cells and 6.75 at FL-SMARCA4 (setting [2]).
On to `O=C1Cc2ncc(C#Cc3cc(C(=O)NC4=NC(CC(F)F)C(=O)C(F)=C4)sc3Cl)cc2N1` (stereo not drawn) [Compound 58d], for which the pIC50 in assay [1] (setting [3]) was 7.21; in the assay on H358 cells it was under 5.00; with A549 cells, under 5.00; at FL-SMARCA4 (FL-SMARCA4 IC50), 6.99.
Consider `O=C(Nc1cc(F)c(=O)n(CC(F)F)c1)c1cc(C#Cc2ccncn2)c(Cl)s1` [Compound 59c], for which the pIC50 in assay [1] (Table 3c.1) was 6.88; with H358 cells, 5.69; in the assay on A549 cells it was 5.93; on FL-SMARCA4 (setting [2]) it was 6.42.
For `Cn1cnc(C#Cc2cc(C(=O)Nc3cc(F)c(=O)n(CC(F)F)c3)sc2Cl)c1` [Compound 60c] the same measures were 6.60, under 5.00, under 5.00 and 6.31.
Regarding `Cn1cc(C#Cc2cc(C(=O)Nc3cc(F)c(=O)n(CC(F)F)c3)sc2Cl)ccc1=O` [Compound 60d], the pIC50 was 7.74 in assay [1] (setting [3]), under 5.00 in the assay on H358 cells, 5.44 in the assay with A549 cells and 7.44 on FL-SMARCA4 (FL-SMARCA4 IC50).
For the compound `Cc1nc(C#Cc2cc(C(=O)Nc3cc(F)c(=O)n(CC(F)F)c3)sc2Cl)cs1` [Compound 61c], the pIC50 in assay [1] (Table 3c.1) was 7.57; in the assay with H358 cells, under 5.00; with A549 cells, 5.82; against FL-SMARCA4 (setting [2]), 7.06.
On to `COc1cncc(C#Cc2cc(C(=O)Nc3cc(F)c(=O)n(CC(F)F)c3)sc2Cl)c1` [Compound 61d], for which the pIC50 is 6.71 in assay [1] (setting [3]), under 5.00 with H358 cells, 5.36 with A549 cells and 6.18 against FL-SMARCA4 (FL-SMARCA4 IC50).
For `O=C1C[C@@H](C#Cc2cc(C(=O)Nc3cc(F)c(=O)n(CC(F)F)c3)sc2Cl)CCN1` [Compound 62d], in that order: 7.65, under 5.00, under 5.00 and 7.24.
Regarding `Cc1cc(C#Cc2cc(C(=O)Nc3cc(F)c(=O)n(CC(F)F)c3)sc2Cl)on1` [Compound 63c], the pIC50 is 7.48 in assay [1] (Table 3c.1), under 5.00 in the assay on H358 cells, 5.64 in the assay with A549 cells and 7.00 against FL-SMARCA4 (setting [2]).
Turning to `O=C1C[C@H](C#Cc2cc(C(=O)Nc3cc(F)c(=O)n(CC(F)F)c3)sc2Cl)CCN1` [Compound 63d], the pIC50 in assay [1] (setting [3]) was 6.78; in the assay on H358 cells, under 5.00; in the assay with A549 cells, under 5.00; against FL-SMARCA4 (FL-SMARCA4 IC50), 6.29.
Consider `N#Cc1cncc(C#Cc2cc(C(=O)Nc3cc(F)c(=O)n(CC(F)F)c3)sc2Cl)c1` [Compound 64d], for which the pIC50 in assay [1] (setting [3]) was 6.78; with H358 cells, under 5.00; in the assay with A549 cells, 5.42; at FL-SMARCA4 (FL-SMARCA4 IC50), 6.30.
On to `O=C(Nc1cc(F)c(=O)n(CC(F)F)c1)c1cc(C#Cc2cccnc2)c(C(F)(F)F)s1` [Compound 65c], for which the pIC50 in assay [1] (Table 3c.1) was 7.47; in the assay on H358 cells, under 5.00; with A549 cells, 5.36; against FL-SMARCA4 (setting [2]), 6.81.
On to `Cn1ccc(C#Cc2cc(C(=O)Nc3cc(F)c(=O)n(CC(F)F)c3)sc2Cl)cc1=O` [Compound 65d], for which the pIC50 in assay [1] (setting [3]) is 5.63; with H358 cells, under 5.00; in the assay with A549 cells, under 5.00; on FL-SMARCA4 (FL-SMARCA4 IC50), 5.11.
Turning to `CN1CCn2c(C#Cc3cc(C(=O)Nc4cc(F)c(=O)n(CC(F)F)c4)sc3Cl)cnc2C1` [Compound 66c], the pIC50 in assay [1] (Table 3c.1) is 6.63; with H358 cells, under 5.00; in the assay on A549 cells, under 5.00; against FL-SMARCA4 (setting [2]), 6.11.
For `Cn1cnc(C#Cc2cc(C(=O)Nc3cc(F)c(=O)n(CC(F)F)c3)sc2Cl)n1` [Compound 67c], the pIC50 in assay [1] (Table 3c.1) is 6.43; with H358 cells, under 5.00; with A549 cells, under 5.00; against FL-SMARCA4 (setting [2]), 6.09.
In the case of `CNC(=O)c1ncc(C#Cc2cc(C(=O)Nc3cc(F)c(=O)n(CC(F)F)c3)sc2Cl)o1` [Compound 67d], the pIC50 in assay [1] (setting [3]) is 7.83; in the assay with H358 cells, under 5.00; with A549 cells, 5.67; against FL-SMARCA4 (FL-SMARCA4 IC50), 7.43.
`NC(=O)c1ccc(C#Cc2cc(C(=O)Nc3cc(F)c(=O)n(CC(F)F)c3)sc2Cl)cc1` [Compound 68c]: the pIC50 in assay [1] (Table 3c.1) is 7.17; in the assay on H358 cells it was under 5.00; in the assay with A549 cells, 5.23; against FL-SMARCA4 (setting [2]) it was 6.92.
`O=C(Nc1cc(F)c(=O)n(CC(F)F)c1)c1cc(C#CC2CCCOC2)c(Cl)s1` (stereo not drawn) [Compound 68d]: the pIC50 in assay [1] (setting [3]) was 7.14; in the assay with H358 cells it was under 5.00; in the assay with A549 cells, 5.62; on FL-SMARCA4 (FL-SMARCA4 IC50) it was 6.69.
For `N#Cc1cc(C(=O)Nc2cc(F)c(=O)n(CC(F)F)c2)sc1C(F)F` [Compound 69d] the same measures were 7.58, under 5.00, 5.69 and 6.92.
Regarding `Cc1cnc(C#Cc2cc(C(=O)Nc3cc(F)c(=O)n(CC(F)F)c3)sc2Cl)s1` [Compound 70c], the pIC50 in assay [1] (Table 3c.1) was 6.58; in the assay with H358 cells, 5.04; in the assay with A549 cells, 5.20; against FL-SMARCA4 (setting [2]), 6.41.
Regarding `O=C(Nc1cc(F)c(=O)n(CC(F)F)c1)c1cc(C#CC(=O)N2CCCC2)c(Cl)s1` [Compound 70d], the pIC50 in assay [1] (setting [3]) is 5.77; in the assay on H358 cells, 5.01; with A549 cells it was 5.71; against FL-SMARCA4 (FL-SMARCA4 IC50), 5.32.
Turning to `Cc1cnc(C#Cc2cc(C(=O)Nc3cc(F)c(=O)n(CC(F)F)c3)sc2Cl)o1` [Compound 71c], the pIC50 is 7.04 in assay [1] (Table 3c.1), under 5.00 with H358 cells, 5.71 in the assay with A549 cells and 6.52 against FL-SMARCA4 (setting [2]).
